This is an account of results in PubChem BioAssay AID434987 (Southern Research Specialized Biocontainment Screening …, 2010).

The term IC50 denotes the concentration that gives 50% inhibition. Broadly, the IC90 is the concentration at which the effect reaches the 90% level. Low readings indicate greater potency, high ones weaker potency.

Calls of active or inactive are those of the source. The rule behind the calls is not given here.

The test system of this assay is M. tuberculosis H37Rv growth inhibition with meropenem. The experiment in a line: dose response, H37Rv, with and without meropenem (AID 434987).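 Note: growth over 7 days at 37 °C before Alamar Blue read on day 9.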
The mark [1] stands for this setting: M. tuberculosis H37Rv growth inhibition, measured here: IC50 without meropenem.
Setting [2] is: M. tuberculosis H37Rv growth inhibition, measured here: IC90 without meropenem.
The mark [3] stands for this setting: measured here: IC90 with meropenem.

For `Cc1cccc2c(C(=O)n3cccn3)cc(-c3ccccc3Cl)nc12`, the IC50 was 7.95 µM. Under setting [1], this compound registered a half-inhibitory concentration (IC50) of 52.7 µM. In addition, the 90% effect concentration (IC90) under setting [2] was over 100 µM. In addition, under setting [3], the IC90 amounted to 26.8 µM.
Taken in the same sequence, the figures for `O=S(=O)(Nc1cccc(-c2ccc(N3CCCCCC3)nn2)c1)c1ccccc1Cl` were 16 µM, over 100 µM, over 100 µM and over 25 µM.
Taken in the same sequence, the figures for `O=C(N/N=C/c1cccc(Br)c1)c1ccc(Cn2cc(Br)cn2)o1` were 99.8 µM (inactive), over 100 µM, over 100 µM and over 100 µM.
Taken in the same sequence, the figures for `CCOC(=O)c1ccc(N2CN(CCc3ccccc3)CNC2=S)cc1` were 26.9 µM, 91.5 µM, over 100 µM and over 100 µM.
Consider `O=c1[nH]c(CN(CCO)CCO)nc2c1C1(CCCCC1)Cc1ccccc1-2`, for which the IC50 is 19.6 µM. For the same compound, the concentration for half-maximal inhibition (IC50) under setting [1] was over 100 µM. Moreover, the IC90 under setting [2] is over 100 µM. In addition, the 90% effect concentration (IC90) under setting [3] was over 100 µM.
With `CCOC(=O)c1c(C)n(-c2ccccc2)c2ccc(OCCN(C)C)cc12`, the IC50 is 5.45 µM. Under setting [1], this compound had a 50% inhibitory concentration (IC50) of 62 µM. This compound showed a 90% effect concentration (IC90) under setting [2] of over 100 µM. The compound also displayed an IC90 under setting [3] of 21.7 µM.
With `Cc1ccc(NC(=O)CCS(=O)(=O)c2cccc3nonc23)cc1`, the IC50 was 16.8 µM (inactive). Moreover, the IC50 under setting [1] was 31.1 µM. Besides, the IC90 under setting [2] was over 100 µM. In addition, under setting [3], the 90% effect concentration (IC90) was over 100 µM.
Regarding `Cc1c(-c2ccncc2)oc2ccc(Br)cc2c1=O`, the IC50 was > 100 µM (inactive). This compound registered an IC50 under setting [1] of over 100 µM. Moreover, the 90% effect concentration (IC90) under setting [2] is over 100 µM. The compound further displayed an IC90 under setting [3] of over 100 µM.
In the case of `COc1nc(-c2ccccc2)ccc1-c1noc(-c2cccnc2)n1`, the IC50 is > 100 µM (inactive). Under setting [1], this compound showed a half-inhibitory concentration (IC50) of over 100 µM. The compound further registered a 90% effect concentration (IC90) under setting [2] of over 100 µM. The same compound displayed an IC90 under setting [3] of over 100 µM.
For the compound `Cc1ccc(C(=O)N2CCC3(CC2)Oc2ccc(F)cc2C(=O)C32CC(c3cccnc3)=NO2)s1` (configuration not stated), the IC50 was 97.5 µM (inactive). For the same compound, the IC50 under setting [1] was determined as 94.9 µM. This compound yielded an IC90 under setting [2] of over 100 µM. In addition, under setting [3], the 90% effect concentration (IC90) is over 100 µM.
On to `O=C(COc1cccc2cccnc12)N/N=C/c1ccc(O)cc1`, for which the concentration for half-maximal inhibition (IC50) is 27 µM. The IC50 under setting [1] was over 100 µM. Besides, under setting [2], the IC90 is over 100 µM. Besides, under setting [3], the IC90 is over 50 µM.
As for `Cn1c(=O)c(C(=O)COC(=O)c2cc(C3CC3)nc3ccccc23)c(N)n(Cc2ccccc2)c1=O`, the IC50 is > 100 µM (inactive). The IC50 under setting [1] was over 100 µM. Further, the IC90 under setting [2] is over 100 µM. The same compound displayed an IC90 under setting [3] of over 100 µM.
As to `CCC(=O)NC(=S)Nc1ccc(NC(=O)c2ccccc2[N+](=O)[O-])cc1`, the IC50 was > 100 µM (inactive). Further, the IC50 under setting [1] was over 100 µM. The same compound yielded an IC90 under setting [2] of over 100 µM. The compound further had an IC90 under setting [3] of over 100 µM.
Take `CCCc1cc(NC(=O)COC(=O)c2nccnc2N)n(-c2ccccc2)n1`: the IC50 is 49.3 µM (inactive). For the same compound, the IC50 under setting [1] was 68.4 µM. Besides, under setting [2], the 90% effect concentration (IC90) was over 100 µM. Moreover, the IC90 under setting [3] was 50.8 µM.
`Nc1c(C(=O)N2CCCC2)sc2nc3c(cc12)CCCCCC3`: the concentration for half-maximal inhibition (IC50) is 19.4 µM. Also, under setting [1], the IC50 worked out at 92.2 µM. This compound registered a 90% effect concentration (IC90) under setting [2] of over 100 µM. Besides, under setting [3], the IC90 was over 100 µM.
As for `Cc1ccc(C)c(N2CCN(CC3CC=CCC3)CC2)c1` (configuration not stated), the IC50 was 25.6 µM. Further, the IC50 under setting [1] turned out to be 79.8 µM. This compound also gave a 90% effect concentration (IC90) under setting [2] of over 100 µM. The same compound yielded a concentration for an effect of 90% (IC90) under setting [3] of 60.7 µM.
For `COc1cc(OC)c2ccc(=O)oc2c1C(CC(=O)N1CCN(c2ccccc2)CC1)c1ccc2c(c1)OCO2` (configuration not stated), in that order: 91.1 µM (inactive), over 100 µM, over 100 µM and over 100 µM.
For `COc1cc(OC)cc(-c2nnc(NC(=O)CCS(=O)(=O)c3ccc(C)cc3)o2)c1`, in that order: 32.2 µM, over 100 µM, over 100 µM and over 100 µM.
Taken in the same sequence, the figures for `Cc1c(-c2ccccc2)cnc2c(C)cccc12` were 59.9 µM (inactive), 95.6 µM, over 100 µM and over 100 µM.
As for `O=C1/C(=C/c2ccncc2)CCc2ccccc21`, the IC50 was 16.8 µM (inactive). Also, the IC50 under setting [1] was 24.3 µM. Besides, the concentration for an effect of 90% (IC90) under setting [2] stood at 36.4 µM. For the same compound, the concentration for an effect of 90% (IC90) under setting [3] was found to be 29.1 µM.
For the compound `CCOC(=O)C1CCN(C(=O)CCCCn2c(=O)[nH]c3ccccc3c2=O)CC1`, the IC50 was > 100 µM (inactive). Besides, the concentration for half-maximal inhibition (IC50) under setting [1] is over 100 µM. For the same compound, under setting [2], the IC90 was over 100 µM. This compound registered a 90% effect concentration (IC90) under setting [3] of over 100 µM.
With `CC(=O)NC(c1cc(Cl)c2cccnc2c1O)C1CC1` (configuration not stated), the IC50 was 23.1 µM. The same compound had a concentration for half-maximal inhibition (IC50) under setting [1] of 73.3 µM. The same compound displayed an IC90 under setting [2] of over 100 µM. Under setting [3], this compound had a 90% effect concentration (IC90) of over 100 µM.
With `CN1CCN(c2ccc(NC(=O)c3ccc(-c4cccc([N+](=O)[O-])c4)o3)cc2)CC1`, the IC50 was 5.87 µM (inactive). This compound had an IC50 under setting [1] of 6.97 µM. The compound also had a 90% effect concentration (IC90) under setting [2] of 18.1 µM. The 90% effect concentration (IC90) under setting [3] turned out to be 6.71 µM.
